# Assay results: EP0497091A1, “Bridged cyclic ketal derivatives” (GLAXO GROUP LIMITED, priority 1991, dated 1992)
# Counter-ions that a name gives are not always drawn.
# Biological target: T1, squalene synthase (Rattus norvegicus, UniProt Q02769)
# T1 construct: from tissue; host or cells: rat liver homogenate
# T1 sequence (Q02769 1-416): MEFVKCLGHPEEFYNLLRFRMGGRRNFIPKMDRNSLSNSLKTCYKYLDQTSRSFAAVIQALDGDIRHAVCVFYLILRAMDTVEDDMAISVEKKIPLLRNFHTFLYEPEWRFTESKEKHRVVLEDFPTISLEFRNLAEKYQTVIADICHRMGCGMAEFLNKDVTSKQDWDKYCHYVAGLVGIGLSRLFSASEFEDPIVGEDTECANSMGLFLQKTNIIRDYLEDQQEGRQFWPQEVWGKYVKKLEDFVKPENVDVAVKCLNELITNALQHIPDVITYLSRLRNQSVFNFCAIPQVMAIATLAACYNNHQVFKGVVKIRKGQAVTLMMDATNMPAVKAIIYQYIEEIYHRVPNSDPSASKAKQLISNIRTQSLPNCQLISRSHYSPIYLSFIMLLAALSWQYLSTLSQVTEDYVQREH
# Assay: Inhibition of squalene synthase ([14C]squalene production from [2-14C]farnesylpyrophosphate)
# Type: biochemical
# Conditions: not given
# Description: A. Biller et al. in J. […] [¹⁴C]squalene is separated from unreacted substrate on thin layer chromatography plates and determined by liquid scintillation counting. […] Acta, Volume 877, 50-60 (1986) and modified to include measurement of cholesterol by high performance liquid chromatography (h.p.l.c.). […] A. […] [¹⁴C] Squalene was separated from unreacted substrate on thin layer chromatography plates and determined by liquid scintillation counting. Inhibition of squalene synthase was quantified by incubating rat liver homogenate with various concentrations of the test compound in the presence of [2-¹⁴C] farnesylpyrophosphate. The concentration of compound giving 50% inhibition of [¹⁴C] squalene production in a 30 minute assay was taken as the IC₅₀ value.
row,Compound,IC50 [nM]
1,"C=C(CC[C@]12O[C@H](C(=O)O)[C@@](O)(C(=O)O)[C@](C(=O)O)(O1)[C@H](OC(=O)CCCCCCCCC)[C@H]2O)[C@@H](OC(C)=O)[C@H](C)Cc1ccccc1 (relative stereo) [6-decanoate in Example 30, [1S-[1α(4R*,5S*),3α,4β,5α,6α,7β]] 1-(4-acetyloxy-5-methyl-3-methylene-6-phenylhexyl)-4,6,7-trihydroxy-2,8-dioxabicyclo[3.2.1]octane-3,4,5-tricarboxylic acid, 6-decanoate]",< 100
2,"C=C(CCC12OC(C(=O)O)C(O)(C(=O)O)C(C(=O)O)(O1)C(OC(C)=O)C2O)C(OC(C)=O)C(C)Cc1ccccc1 (stereo not drawn) [Compound 1 in Example 28, [1S-[1α(4R*,5S*),3α,4β,5α,6α,7β]] 1-(4-Acetyloxy-5-methyl-3-methylene-6-phenylhexyl)-4,6,7-trihydroxy-2,8-dioxabicyclo[3.2.1]octane-3,4,5-tricarboxylic acid, 6-acetate]",< 100
3,"C=C(CC[C@]12O[C@H](C(=O)O)[C@@](O)(C(=O)O)[C@](C(=O)O)(O1)[C@H](OC(=O)/C=C/[C@@H](C)C[C@@H](C)CC)[C@H]2O)C(=O)[C@H](C)Cc1ccccc1 [Example 3, [1S-[1α(5S^*),3α,4β,5α,6α(2E,4R^*,6R^*),7β]] 1-(5-Methyl-3-methylene-4-oxo-6-phenylhexyl)-4,6,7-trihydroxy-2,8-dioxabicyclo[3.2.1]octane-3,4,5-tricarboxylic acid, 6-(4,6-dimethyl-2-octenoate)]",< 100
4,"CCC(C)CC(C)CCC(=O)OC1C(O)C2(CCC(=O)C(O)C(C)Cc3ccccc3)OC(C(=O)O)C(O)(C(=O)O)C1(C(=O)O)O2 (stereo not drawn) [Example 17, [1S-[1α(4R*,5S*),3α,4β,5α,6α(4S*,6R*),7β]] 1-(4-Hydroxy-5-methyl-3-oxo-6-phenylhexyl)-4,6,7-trihydroxy-2,8-dioxobicyclo[3.2.1]octane-3,4,5-tricarboxylic acid, 6-(4,6-dimethyloctanoate)]",< 100
5,"CCC(C)CC(C)CCC(=O)OC1C(O)C2(CCCC(=O)CCc3ccccc3)OC(C(=O)O)C(O)(C(=O)O)C1(C(=O)O)O2 (stereo not drawn) [Example 19, [1S-[1α,3α,4β,5α,6α(4S*,6R*),7β]] 1-(4-Oxo-6-phenylhexyl)-4,6,7-trihydroxy-2,8-dioxabicyclo[3.2.1]octane-3,4,5-tricarboxylic acid, 6-(4,6-dimethyloctanoate)]",< 100
6,"CCC(C)CC(C)CCC(=O)OC1C(O)C2(CCCC(=O)C(C)Cc3ccccc3)OC(C(=O)O)C(O)(C(=O)O)C1(C(=O)O)O2 (stereo not drawn) [Example 20, [1S-[1α(5R*S*),3α,4β,5α,6α(4S*,6R*),7β]] 1-(5-Methyl-4-oxo-6-phenylhexyl)-4,6,7-trihydroxy-2,8-dioxabicyclo[3.2.1]octane-3,4,5-tricarboxylic acid, 6-(4,6-dimethyloctanoate)]",< 100
7,"CCC(C)CC(C)CCC(=O)OC1C(O)C2(CCC(C)C(=O)CCc3ccccc3)OC(C(=O)O)C(O)(C(=O)O)C1(C(=O)O)O2 (stereo not drawn) [Example 21, [1S-[1α[3R*(S*)],3α,4β,5α,6α(4S*,6R*),7β]] 1-(3-Methyl-4-oxo-6-phenylhexyl)-4,6,7-trihydroxy-2,8-dioxabicyclo[3.2.1]octane-3,4,5-tricarboxylic acid, 6-(4,6-dimethyloctanoate)]",< 100
8,"C=C(CCC12OC(C(=O)O)C(OC(C)=O)(C(=O)O)C(C(=O)O)(O1)C(OC(=O)C=CC(C)CC(C)CC)C2OC(C)=O)C(OC(C)=O)C(C)Cc1ccccc1 (stereo not drawn) [Example 25, [1S-[1α(4R*,5S*),3α,4β,5α,6α(2E,4R*,6R*),7β]] 1-(4-Acetyloxy-5-methyl-3-methylene-6-phenylhexyl)-4,7-diacetyloxy-6-hydroxy-2,8-dioxabicyclo[3.2.1]octane-3,4,5-tricarboxylic acid, 6-(4,6-dimethyl-2-octenoate)]",< 100
9,"C=C(CCC12OC(C(=O)O)C(O)(C(=O)O)C(C(=O)O)(O1)C(OC(=O)C=CC(C)CC(C)CC)C2OC(=O)OC)C(OC(C)=O)C(C)Cc1ccccc1 (stereo not drawn) [Example 26, [1S-[1α(4R*,5S*),3α,4β,5α,6α(2E,4R*,6R*),7β]] 1-(4-Acetyloxy-5-methyl-3-methylene-6-phenylhexyl)-4,6-dihydroxy-7-[(methoxycarbonyl)oxy]-2,8-dioxabicyclo[3.2.1]octane-3,4,5-tricarboxylic acid, 6-(4,6-dimethyl-2-octenoate)]",< 100

# Same assay, conditions: rat liver homogenate; [2-¹⁴C] farnesylpyrophosphate as substrate; 50% inhibition of [¹⁴C] squalene production in a 30 minute assay; read-out: IC₅₀
row,IC50 [nM],Compound
1,< 100,"CCC(C)CC(C)/C=C/C(=O)OC1C(O)C2(CCC(C)C(O)C(C)Cc3ccccc3)OC(C(=O)O)C(O)(C(=O)O)C1(C(=O)O)O2 (single isomer, unassigned) [Example 8, [1S-[1α[3R*(S*),4R*(S*),5S*],3α,4β,5α,6α(2E,4R*,6R*),7β]] 1-(4-Hydroxy-3,5-dimethyl-6-phenylhexyl)-4,6,7-trihydroxy-2,8-dioxabicyclo[3.2.1]octane-3,4,5-tricarboxylic acid, 6-(4,6-dimethyl-2-octenoate), isomer 3 and isomer 4]"
2,< 100,"CCC(C)CC(C)CCC(=O)OC1C(O)C2(CCC(C)C(=O)C(C)Cc3ccccc3)OC(C(=O)O)C(O)(C(=O)O)C1(C(=O)O)O2 (single isomer, unassigned; isomer 1) [isomer 1 in Example 16, [1S-[1α(3R*(S*),5S*),3α,4β,5α,6α(4S*,6R*),7β]] 1-(3,5-Dimethyl-4-oxo-6-phenylhexyl)-4,6,7-trihydroxy-2,8-dioxabicyclo[3.2.1]octane-3,4,5-tricarboxylic acid, 6-(4,6-dimethyloctanoate), 3,4,5-tripotassium salt]"
3,< 100,"COC(=O)OC1C(O)C2(CCC(C)C(OC(C)=O)C(C)Cc3ccccc3)OC(C(=O)O)C(O)(C(=O)O)C1(C(=O)O)O2 (stereo not drawn) [Compound (I) in Example 65, [1S-[1α(3R*S*,4S*,5S*),3α,4β,5α,6α,7β]] 1-(4-Acetyloxy-3,5-dimethyl-6-phenylhexyl)-4,7-dihydroxy-6-[[(methoxycarbonyl]oxy]-2,8-dioxabicyclo[3.2.1]octane-3,4,5-tricarboxylic acid]"
4,< 100,"C=C(CCC12OC(C(=O)O)C(O)(C(=O)O)C(C(=O)O)(O1)C(OC(=O)CCCCC(C)=O)C2O)C(OC(C)=O)C(C)Cc1ccccc1 (stereo not drawn) [Example 53, [1S-[1α(4R*,5S*),3α,4β,5α,6α,7β]] 1-(4-Acetyloxy-5-methyl-3-methylene-6-phenylhexyl)-4,6,7-trihydroxy-2,8-dioxabicyclo[3.2.1]octane-3,4,5-tricarboxylic acid, 6-(6-oxo-heptanoate)]"

# Tested on: clinically relevant pathogens
# Assay: In vitro antifungal activity, agar plate MIC determination
# Type: cell-based
# Conditions: Candida albicans
# Description: The in vitro evaluation of the anti-fungal activity of compounds of the invention can be performed by determining the minimum inhibitory concentration (MIC) which is the concentration of the test compound in a suitable medium at which growth of a particular microorganism fails to occur.
# [¹⁴C] Squalene was separated from unreacted substrate on thin layer chromatography plates and determined by liquid scintillation counting. Inhibition of squalene synthase was quantified by incubating rat liver homogenate with various concentrations of the test compound in the presence of [2-¹⁴C] farnesylpyrophosphate. The concentration of compound giving 50% inhibition of [¹⁴C] squalene production in a 30 minute assay was taken as the IC₅₀ value. […] In practice, a series of agar plates, each having the test compound incorporated at a particular concentration, was inoculated with a standard culture of a clinically relevant pathogen, for example Candida albicans, and each plate was then incubated at 37 °C for 24 to 48 hours depending on the pathogen.
row,Compound,MIC [µg/mL]
1,"C=C(CC[C@]12O[C@H](C(=O)O)[C@@](O)(C(=O)O)[C@](C(=O)O)(O1)[C@H](OC(=O)CCCCCCCCC)[C@H]2O)[C@@H](OC(C)=O)[C@H](C)Cc1ccccc1 (relative stereo) [6-decanoate in Example 30, [1S-[1α(4R*,5S*),3α,4β,5α,6α,7β]] 1-(4-acetyloxy-5-methyl-3-methylene-6-phenylhexyl)-4,6,7-trihydroxy-2,8-dioxabicyclo[3.2.1]octane-3,4,5-tricarboxylic acid, 6-decanoate]",0.1 to 31
2,"CC[C@H](C)C[C@H](C)CCC(=O)O[C@@H]1[C@@H](O)[C@@]2(CCC(C)[C@@H](O)[C@H](C)Cc3ccccc3)O[C@H](C(=O)O)[C@@](O)(C(=O)O)[C@]1(C(=O)O)O2 (relative stereo) [Example 13, [1S-[1α(3R*S*,4S*,5S*),3α,4β,5α,6α(4S*,6R*),7β]] 1-(3,5-Dimethyl-4-hydroxy-6-phenylhexyl)-4,6,7-trihydroxy-2,8-dioxabicyclo[3.2.1]octane-3,4,5-tricarboxylic acid, 6-(4,6-dimethyloctanoate)]",0.1 to 31
